Where two headings read alike, the source gives them in different places.
Tests used:
BRAF V600E = molecular target: T1, BRAF V600E (Homo sapiens, UniProt P15056, V600E); assay: Cellular assay of target protein degradation, T-Rex 293 cells stably transfected with HA-BRAF_V600E (HA immunofluorescence, high content imaging); type: cell-based
T1 construct: expressed in transfected cells
How it was run: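 HA immunofluorescence on fixed cells, imaged by high-content reader, measured loss of HA-BRAF V600E in stably transfected T-Rex 293 cells induced with 1 ng/mL doxycycline. Compounds were applied for 24 h at 37 °C (final 0.1 nM–1 μM, 0.1% DMSO); DC50 and Dmax (% of control) were reported.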

BRAF G466V = molecular target: T2, BRAF G466V (Homo sapiens, UniProt P15056, G466V); assay: Cellular assay of target protein degradation, T-Rex 293 cells stably transfected with HA-BRAF G466V (HA immunofluorescence, high content imaging); type: cell-based
T2 construct: expressed in transfected cells
How it was run: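 HA-BRAF G466V levels were read by HA immunofluorescence and high-content imaging after 24 h compound exposure (final 30 nM–3 pM, 0.1% DMSO, 37 °C). Expression was induced with 0.75 ng/mL doxycycline. Outputs: half-maximal degradation concentration (DC50) and maximal degradation (Dmax) relative to control.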

[1] = half maximal degradation, T-Rex 293 HA-BRAF V600E; read-out: BRaf V600E DC50
[2] = maximum degradation observed, T-Rex 293 HA-BRAF V600E
[3] = half maximal degradation, T-Rex 293 HA-BRAF G466V; read-out: BRaf G466V DC50
[4] = maximum degradation observed, T-Rex 293 HA-BRAF G466V

T1 sequence (P15056 whole entry V600E): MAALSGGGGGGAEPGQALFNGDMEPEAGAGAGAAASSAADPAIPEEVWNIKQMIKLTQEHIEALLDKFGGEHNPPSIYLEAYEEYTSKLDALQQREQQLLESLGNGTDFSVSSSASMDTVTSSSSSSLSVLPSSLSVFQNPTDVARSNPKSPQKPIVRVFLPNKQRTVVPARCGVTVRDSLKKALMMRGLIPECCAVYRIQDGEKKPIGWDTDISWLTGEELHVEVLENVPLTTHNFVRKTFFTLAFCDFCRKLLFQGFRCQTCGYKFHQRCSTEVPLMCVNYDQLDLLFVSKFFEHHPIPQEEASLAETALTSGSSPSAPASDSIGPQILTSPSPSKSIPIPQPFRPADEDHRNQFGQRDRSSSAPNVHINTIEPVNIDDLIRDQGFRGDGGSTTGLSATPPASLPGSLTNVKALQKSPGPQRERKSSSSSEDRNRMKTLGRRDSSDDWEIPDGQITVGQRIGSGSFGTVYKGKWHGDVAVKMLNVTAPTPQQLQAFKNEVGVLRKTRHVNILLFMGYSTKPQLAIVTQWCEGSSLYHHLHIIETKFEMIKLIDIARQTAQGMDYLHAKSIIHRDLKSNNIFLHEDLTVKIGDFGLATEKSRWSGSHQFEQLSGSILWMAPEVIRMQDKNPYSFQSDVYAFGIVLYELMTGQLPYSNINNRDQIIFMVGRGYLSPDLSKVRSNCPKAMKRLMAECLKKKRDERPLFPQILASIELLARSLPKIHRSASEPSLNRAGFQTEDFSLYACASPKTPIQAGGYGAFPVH
T2 sequence (P15056 whole entry G466V): as the sequence (P15056 whole entry V600E) above, with G466V, E600V counted along it

| SMILES | DC50 (BRAF V600E; [1]) | Dmax (BRAF V600E; [2]) | DC50 (BRAF G466V; [3]) | Dmax (BRAF G466V; [4]) | DC50 (BRAF V600E; read-out: BRaf V600E DC50; half maximal degradation, T-Rex 293 HA-BRAF V600E) | DC50 (BRAF G466V; read-out: BRaf G466V DC50; half maximal degradation, T-Rex 293 HA-BRAF G466V) |
| --- | --- | --- | --- | --- | --- | --- |
| O=C1CC[C@H](NC(=O)c2ccc(N3CCC(CN4CC5(C4)CN(c4ccc(-c6cnc7[nH]cc(C(=O)c8c(F)ccc(NS(=O)(=O)N9CC[C@@H](F)C9)c8F)c7c6)cc4)C5)CC3)cn2)C(=O)N1 [Compound 353, 5-(4-{[6-(4-{3-[2,6-difluoro-3-({[(3R)-3-fluoropyrrolidin-1-yl]sulfonyl}amino)benzoyl]-1H-pyrrolo[2,3-b]pyridin-5-yl}phenyl)-2,6-diazaspiro[3.3]heptan-2-yl]methyl}piperidin-1-yl)-N-[(3S)-2,6-dioxopiperidin-3-yl]pyridine-2-carboxamide] | 5 to 50 nM | 35 to 70% | 1 to 10 nM | 35 to 70% | – | – |
| O=C1CCC(NC(=O)c2ccc(N3CCC(CN4CC5(C4)CN(c4ccc(-c6cnc7[nH]cc(C(=O)c8c(F)ccc(NS(=O)(=O)N9CC[C@@H](F)C9)c8F)c7c6)cc4)C5)CC3)cn2)C(=O)N1 (stereo partly drawn) [Compound 354, 5-(4-{[6-(4-{3-[2,6-difluoro-3-({[(3R)-3-fluoropyrrolidin-1-yl]sulfonyl}amino)benzoyl]-1H-pyrrolo[2,3-b]pyridin-5-yl}phenyl)-2,6-diazaspiro[3.3]heptan-2-yl]methyl}piperidin-1-yl)-N-(2,6-dioxopiperidin-3-yl)pyridine-2-carboxamide] | 5 to 50 nM | < 35% | 1 to 10 nM | < 35% | – | – |
| O=C1CC[C@H](NC(=O)c2ccc(CCCN3CC4(C3)CN(c3ccc(-c5cnc6[nH]cc(C(=O)c7c(F)ccc(NS(=O)(=O)N8CC[C@@H](F)C8)c7F)c6c5)cc3)C4)cc2F)C(=O)N1 [Compound 355, 4-{3-[6-(4-{3-[2,6-difluoro-3-({[(3R)-3-fluoropyrrolidin-1-yl]sulfonyl}amino)benzoyl]-1H-pyrrolo[2,3-b]pyridin-5-yl}phenyl)-2,6-diazaspiro[3.3]heptan-2-yl]propyl}-N-[(3S)-2,6-dioxopiperidin-3-yl]-2-fluorobenzamide] | 50 to 500 nM | 35 to 70% | > 30 nM | – | – | – |
| O=C1CCC(NC(=O)c2ccc(CCCN3CC4(C3)CN(c3ccc(-c5cnc6[nH]cc(C(=O)c7c(F)ccc(NS(=O)(=O)N8CC[C@@H](F)C8)c7F)c6c5)cc3)C4)cc2F)C(=O)N1 (stereo partly drawn) [Compound 356, 4-{3-[6-(4-{3-[2,6-difluoro-3-({[(3R)-3-fluoropyrrolidin-1-yl]sulfonyl}amino)benzoyl]-1H-pyrrolo[2,3-b]pyridin-5-yl}phenyl)-2,6-diazaspiro[3.3]heptan-2-yl]propyl}-N-(2,6-dioxopiperidin-3-yl)-2-fluorobenzamide] | > 500 nM | – | > 30 nM | – | – | – |
| COc1cc(N2CCC(CN3CCN(c4ccc(-c5cnc6[nH]cc(C(=O)c7c(F)ccc(NS(=O)(=O)N8CC[C@@H](F)C8)c7F)c6c5)cc4)CC3)CC2)ccc1C(=O)N[C@H]1CCC(=O)NC1=O [Compound 357, 4-(4-{[4-(4-{3-[2,6-difluoro-3-({[(3R)-3-fluoropyrrolidin-1-yl]sulfonyl}amino)benzoyl]-1H-pyrrolo[2,3-b]pyridin-5-yl}phenyl)piperazin-1-yl]methyl}piperidin-1-yl)-N-[(3S)-2,6-dioxopiperidin-3-yl]-2-methoxybenzamide] | 5 to 50 nM | 35 to 70% | 1 to 10 nM | > 70% | – | – |
| COc1cc(N2CCC(CN3CCN(c4ccc(-c5cnc6[nH]cc(C(=O)c7c(F)ccc(NS(=O)(=O)N8CC[C@@H](F)C8)c7F)c6c5)cc4)CC3)CC2)ccc1C(=O)NC1CCC(=O)NC1=O (stereo partly drawn) [Compound 358, 4-(4-{[4-(4-{3-[2,6-difluoro-3-({[(3R)-3-fluoropyrrolidin-1-yl]sulfonyl}amino)benzoyl]-1H-pyrrolo[2,3-b]pyridin-5-yl}phenyl)piperazin-1-yl]methyl}piperidin-1-yl)-N-(2,6-dioxopiperidin-3-yl)-2-methoxybenzamide] | 5 to 50 nM | 35 to 70% | 1 to 10 nM | > 70% | – | – |
| COc1cc(N2CCN(CC3CCN(c4ccc(-c5cnc6[nH]cc(C(=O)c7c(F)ccc(NS(=O)(=O)N8CC[C@@H](F)C8)c7F)c6c5)cc4)CC3)CC2)ccc1C(=O)N[C@H]1CCC(=O)NC1=O [Compound 359, 4-(4-{[1-(4-{3-[2,6-difluoro-3-({[(3R)-3-fluoropyrrolidin-1-yl]sulfonyl}amino)benzoyl]-1H-pyrrolo[2,3-b]pyridin-5-yl}phenyl)piperidin-4-yl]methyl}piperazin-1-yl)-N-[(3S)-2,6-dioxopiperidin-3-yl]-2-methoxybenzamide] | 5 to 50 nM | 35 to 70% | 1 to 10 nM | > 70% | – | – |
| COc1cc(N2CCN(CC3CCN(c4ccc(-c5cnc6[nH]cc(C(=O)c7c(F)ccc(NS(=O)(=O)N8CC[C@@H](F)C8)c7F)c6c5)cc4)CC3)CC2)ccc1C(=O)NC1CCC(=O)NC1=O (stereo partly drawn) [Compound 360, 4-(4-{[1-(4-{3-[2,6-difluoro-3-({[(3R)-3-fluoropyrrolidin-1-yl]sulfonyl}amino)benzoyl]-1H-pyrrolo[2,3-b]pyridin-5-yl}phenyl)piperidin-4-yl]methyl}piperazin-1-yl)-N-(2,6-dioxopiperidin-3-yl)-2-methoxybenzamide] | < 5 nM | < 35% | 1 to 10 nM | > 70% | – | – |
| COc1cc(N2CC3(CN(CCc4ccc(-c5cnc6[nH]cc(C(=O)c7c(F)ccc(NS(=O)(=O)N8CC[C@@H](F)C8)c7F)c6c5)cc4)C3)C2)ccc1C(=O)N[C@H]1CCC(=O)NC1=O [Compound 361, 4-{6-[2-(4-{3-[2,6-difluoro-3-({[(3R)-3-fluoropyrrolidin-1-yl]sulfonyl}amino)benzoyl]-1H-pyrrolo[2,3-b]pyridin-5-yl}phenyl)ethyl]-2,6-diazaspiro[3.3]heptan-2-yl}-N-[(3S)-2,6-dioxopiperidin-3-yl]-2-methoxybenzamide] | 5 to 50 nM | 35 to 70% | 1 to 10 nM | > 70% | – | – |
| COc1cc(N2CC3(CN(CCc4ccc(-c5cnc6[nH]cc(C(=O)c7c(F)ccc(NS(=O)(=O)N8CC[C@@H](F)C8)c7F)c6c5)cc4)C3)C2)ccc1C(=O)NC1CCC(=O)NC1=O (stereo partly drawn) [Compound 362, 4-{6-[2-(4-{3-[2,6-difluoro-3-({[(3R)-3-fluoropyrrolidin-1-yl]sulfonyl}amino)benzoyl]-1H-pyrrolo[2,3-b]pyridin-5-yl}phenyl)ethyl]-2,6-diazaspiro[3.3]heptan-2-yl}-N-(2,6-dioxopiperidin-3-yl)-2-methoxybenzamide] | 5 to 50 nM | 35 to 70% | 1 to 10 nM | > 70% | – | – |
| Nc1ccc(F)c(C(=O)c2c[nH]c3ncc(-c4ccc(N5CCC(CN6CC7(C6)CN(c6ccc(C(=O)N[C@H]8CCC(=O)NC8=O)c(F)c6)C7)CC5)cc4)cc23)c1F [Compound 363, 4-{6-[(1-{4-[3-(3-amino-2,6-difluorobenzoyl)-1H-pyrrolo[2,3-b]pyridin-5-yl]phenyl}piperidin-4-yl)methyl]-2,6-diazaspiro[3.3]heptan-2-yl}-N-[(3S)-2,6-dioxopiperidin-3-yl]-2-fluorobenzamide] | > 500 nM | – | > 30 nM | – | – | – |
| O=C1CCC(NC(=O)N2CCCc3c(C4CCN(CC5CCN(c6ccc(-c7cnc8[nH]cc(C(=O)c9c(F)ccc(NS(=O)(=O)N%10CC[C@@H](F)C%10)c9F)c8c7)cc6)CC5)CC4)ccnc32)C(=O)N1 (stereo partly drawn) [Compound 364, 5-(1-{[1-(4-{3-[2,6-difluoro-3-({[(3R)-3-fluoropyrrolidin-1-yl]sulfonyl}amino)benzoyl]-1H-pyrrolo[2,3-b]pyridin-5-yl}phenyl)piperidin-4-yl]methyl}piperidin-4-yl)-N-(2,6-dioxopiperidin-3-yl)-1,2,3,4-tetrahydro-1,8-naphthyridine-1-carboxamide] | – | 35 to 70% | – | > 70% | 5 to 50 nM | 1 to 10 nM |
| O=C1CCC(c2ccc(C3CCN(CC4CCN(c5ccc(-c6cnc7[nH]cc(C(=O)c8c(F)ccc(NS(=O)(=O)N9CC[C@@H](F)C9)c8F)c7c6)cc5)CC4)CC3)cn2)C(=O)N1 (stereo partly drawn) [Compound 365, (3R)-N-[3-(5-{4-[4-({4-[6-(2,6-dioxopiperidin-3-yl)pyridin-3-yl]piperidin-1-yl}methyl)piperidin-1-yl]phenyl}-1H-pyrrolo[2,3-b]pyridine-3-carbonyl)-2,4-difluorophenyl]-3-fluoropyrrolidine-1-sulfonamide] | 5 to 50 nM | > 70% | 1 to 10 nM | > 70% | – | – |
| O=C1CC[C@H](NC(=O)N2CCCc3c(C4CCN(CC5CCN(c6ccc(-c7cnc8[nH]cc(C(=O)c9c(F)ccc(NS(=O)(=O)N%10CC[C@@H](F)C%10)c9F)c8c7)cc6)CC5)CC4)ccnc32)C(=O)N1 [Compound 366, 5-(1-{[1-(4-{3-[2,6-difluoro-3-({[(3R)-3-fluoropyrrolidin-1-yl]sulfonyl}amino)benzoyl]-1H-pyrrolo[2,3-b]pyridin-5-yl}phenyl)piperidin-4-yl]methyl}piperidin-4-yl)-N-[(3S)-2,6-dioxopiperidin-3-yl]-1,2,3,4-tetrahydro-1,8-naphthyridine-1-carboxamide] | 5 to 50 nM | 35 to 70% | 1 to 10 nM | > 70% | – | – |
